Data set [1] relates to S. cerevisiae. As to the kind of experiment: Chronological lifespan of yeast, outgrowth method (Bioscreen C). Type of data set: cell-based. Particulars: FIG. 4. The protocol:
Lifespan was measured using the outgrowth method described by Murakami, C. and Kaeberlein, M., (2009) J. Vis. Exp, 27. Briefly, chronological lifespan of yeast refers to the profile of viability of an ageing yeast culture over time. To measure this a yeast culture is grown in liquid media until the glucose carbon source is exhausted and the cells stop dividing. At this point the proportion of cells which are alive and able to divide is measured by observing the outgrowth characteristics of a fresh inoculate of the ageing culture using a Bioscreen™ C machine (Oy Growth Curves Ab Ltd, Finland). Viabilities at various time points are compared to determine the chronological lifespan of the culture.

Data set [2] deals with C. elegans. As to the kind of experiment: C. elegans lifespan, percentage of living worms over time. The note with it: FIG. 5. It counts as in vivo. The method, then: FK-506 was added to C. elegans during the timed egg laying stage and lifespan was measured as described in Sutphin, G. L., and Kaeberlein, M., (2009) J. Vis. Exp, 27. Briefly this method comprises synchronising a population of worms and measuring the percentage of living worms at a range of time points, scoring live worms by their ability to respond to physical stimulus.

Data set [3] relates to MRC5 human fibroblast cell line. Nature of the data set: Cell division rate / replicative lifespan of MRC5 fibroblasts. Type of data set: cell-based. The method, then: The cell division rate was measured using the method of Fairweather, D. S., M. Fox, and G. P. Margison, (1987), Exp Cell Res, 168(1): p. 153-9. Briefly, the replicative lifespan of MRC5 cells are measured by growing them on the surface of dishes until the reach confluencey whereupon they are split at a 1:2 ratio (i.e. diluted 1 in 2). The number of times the culture is split is equal to that of the number of divisions the cells are able to undertake which is the cultures replicative lifespan. MRC5 cells are only able to divide a finite number of times, and as they reach the end of their life the time they take to undergo cell division increases. In this instance the rate of cell division is used as a measure of age.

The source of these data is patent publication US20120136046A1, “METHOD OF TREATING AGE RELATED DISORDERS” (Chronos Therapeutics Limited, priority 2009, published 2012).

Structures are written as SMILES.

With `C=CC[C@@H]1/C=C(\C)C[C@H](C)C[C@H](OC)[C@H]2O[C@@](O)(C(=O)C(=O)N3CCCC[C@H]3C(=O)O[C@H](/C(C)=C/[C@@H]3CC[C@@H](O)[C@H](OC)C3)[C@H](C)[C@@H](O)CC1=O)[C@H](C)C[C@@H]2OC` [FK-506, fujimycin], in data set [1] (0.1 ng/ml in the culture medium), the “effect on the chronological lifespan of the cells compared to the control” value is “no significant effect”. In data set [1] (1 ng/ml or more in the culture medium), the “effect on the median lifespan of the yeast cells compared to the control” value was “significant effect increasing the median lifespan”. Further, the “lifespan of C. elegans” value in data set [2] (added during the timed egg laying stage) was “prolongs the lifespan of C. elegans in a dose dependent manner”. For the same compound, the “viability of the organisms (chronological lifespan)” value in data set [2] (addition of 4μ/ml) is recorded as “significant increase in the viability”. In data set [3] (MRC5 cells, FIG. 6), the “age dependent reduction in cell division rate” value is recorded as “appears to reverse age dependent reduction in cell division rate”. Also, the “division time compared to a control having no FK-506 added” value in data set [3] (MRC5 cells, addition after 39 divisions) is on record as “reduction of the division time”. Moreover, the “toxicity to the cells” value in data set [3] (higher concentrations) is listed as “becomes toxic to the cells”.
